Experimental data from patent US11802111B2, “Cyclobutyl amide monoacylglycerol lipase modulators” (Janssen Pharmaceutica NV, priority 2020, dated 2023).

biological target: human MGL from HeLa cells (Homo sapiens (Human), UniProt Q99685); assay: MGL in vitro activity assay ([glycerol-1,3-3H]-oleoyl glycerol hydrolysis, activated carbon filtration); assay type: biochemical; conditions: 300 nM [Glycerol-1,3-3H]-oleoyl glycerol, one hour
Method in brief: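 Endogenous human MGL in HeLa cells/homogenates incubated 1 h with test compounds and 300 nM [glycerol-1,3-3H]-oleoyl glycerol. Released 3H-glycerol passing an activated carbon filter counted as activity; screening at 10 μM compound, top IC50 concentration set empirically.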

Chain of human MGL from HeLa cells (Q99685 whole entry): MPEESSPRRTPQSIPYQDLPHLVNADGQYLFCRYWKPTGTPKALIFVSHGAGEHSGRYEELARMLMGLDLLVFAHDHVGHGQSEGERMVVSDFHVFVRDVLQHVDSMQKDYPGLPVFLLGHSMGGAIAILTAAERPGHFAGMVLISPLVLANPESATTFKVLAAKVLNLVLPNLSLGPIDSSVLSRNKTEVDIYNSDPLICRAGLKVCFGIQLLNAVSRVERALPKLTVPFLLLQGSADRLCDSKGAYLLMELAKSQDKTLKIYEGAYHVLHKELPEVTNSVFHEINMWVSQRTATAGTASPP

Row | SMILES | IC50 [nM]
1 | CC(C)(C)c1ccc(OC2CCC3(CC2)CN(C(=O)[C@H]2C[C@@](C)(O)C2)C3)cc1 [Example 260, (7-(4-(tert-Butyl)phenoxy)-2-azaspiro[3.5]nonan-2-yl)((1s,3s)-3-hydroxy-3-methylcyclobutyl)methanone] | 10
2 | C[C@]1(O)C[C@@H](C(=O)N2CC3(CCC(Oc4ccc(OC(F)(F)F)cc4)CC3)C2)C1 [Example 262, ((1s,3s)-3-Hydroxy-3-methylcyclobutyl)(7-(4-(trifluoromethoxy)phenoxy)-2-azaspiro[3.5]nonan-2-yl)methanone] | 3.2
3 | C[C@]1(O)C[C@@H](C(=O)N2CC3(CCC(Oc4cccc(OC(F)(F)F)c4)CC3)C2)C1 [Example 263, ((1s,3s)-3-Hydroxy-3-methylcyclobutyl)(7-(3-(trifluoromethoxy)phenoxy)-2-azaspiro[3.5]nonan-2-yl)methanone] | 12
4 | CC(C)c1ccccc1OC1CCC2(CC1)CN(C(=O)[C@H]1C[C@@](C)(O)C1)C2 [Example 265, ((1s,3s)-3-Hydroxy-3-methylcyclobutyl)(7-(2-isopropylphenoxy)-2-azaspiro[3.5]nonan-2-yl)methanone] | 37
5 | COC1(c2cccc(C(C)C)c2)CCC2(CC1)CN(C(=O)[C@H]1C[C@@](C)(O)C1)C2 [Example 266, ((1s,3s)-3-Hydroxy-3-methylcyclobutyl)(7-(3-isopropylphenyl)-7-methoxy-2-azaspiro[3.5]nonan-2-yl)methanone] | 1.2
6 | Cn1ccc2cc(C3CC4(C3)CN(C(=O)[C@H]3C[C@@](C)(O)C3)C4)cnc21 [Example 268, ((1s,3s)-3-Hydroxy-3-methylcyclobutyl)(6-(1-methyl-1H-pyrrolo[2,3-b]pyridin-5-yl)-2-azaspiro[3.3]heptan-2-yl)methanone] | 2400
7 | Cn1ccc2ccc(C3CC4(C3)CN(C(=O)[C@H]3C[C@@](C)(O)C3)C4)nc21 [Example 269, ((1s,3s)-3-Hydroxy-3-methylcyclobutyl)(6-(1-methyl-1H-pyrrolo[2,3-b]pyridin-6-yl)-2-azaspiro[3.3]heptan-2-yl)methanone] | 507
8 | C[C@]1(O)C[C@@H](C(=O)N2CC3(CC(Cc4ccccc4C4CC4)C3)C2)C1 [Example 271, (6-(2-Cyclopropylbenzyl)-2-azaspiro[3.3]heptan-2-yl)((1s,3s)-3-hydroxy-3-methylcyclobutyl)methanone] | 3.6
9 | COc1cc(C(F)F)ccc1CC1CC2(C1)CN(C(=O)[C@H]1C[C@@](C)(O)C1)C2 [Example 275, (6-(4-(Difluoromethyl)-2-methoxybenzyl)-2-azaspiro[3.3]heptan-2-yl)((1s,3s)-3-hydroxy-3-methylcyclobutyl)methanone] | 0.44
10 | COc1cc(CC2CC3(C2)CN(C(=O)[C@H]2C[C@@](C)(O)C2)C3)ccc1C(F)(F)F [Example 276, ((1s,3s)-3-Hydroxy-3-methylcyclobutyl)(6-(3-methoxy-4-(trifluoromethyl)benzyl)-2-azaspiro[3.3]heptan-2-yl)methanone] | 1
11 | Cc1ccc(CC2CC3(C2)CN(C(=O)[C@H]2C[C@@](C)(O)C2)C3)nc1C(F)(F)F [Example 277, ((1s,3s)-3-Hydroxy-3-methylcyclobutyl)(6-((5-methyl-6-(trifluoromethyl)pyridin-2-yl)methyl)-2-azaspiro[3.3]heptan-2-yl)methanone] | 18
12 | Cc1nc(CC2CC3(C2)CN(C(=O)[C@H]2C[C@@](C)(O)C2)C3)ccc1C(F)(F)F [Example 278, ((1s,3s)-3-Hydroxy-3-methylcyclobutyl)(6-((6-methyl-5-(trifluoromethyl)pyridin-2-yl)methyl)-2-azaspiro[3.3]heptan-2-yl)methanone] | 16
13 | Cc1nc(CC2CC3(C2)CN(C(=O)[C@H]2C[C@@](C)(O)C2)C3)ccc1OC(F)F [Example 280, (6-((5-(Difluoromethoxy)-6-methylpyridin-2-yl)methyl)-2-azaspiro[3.3]heptan-2-yl)((1s,3s)-3-hydroxy-3-methylcyclobutyl)methanone] | 37
14 | COc1nc(CC2CC3(C2)CN(C(=O)[C@H]2C[C@@](C)(O)C2)C3)ccc1C(F)(F)F [Example 281, ((1s,3s)-3-Hydroxy-3-methylcyclobutyl)(6-((6-methoxy-5-(trifluoromethyl)pyridin-2-yl)methyl)-2-azaspiro[3.3]heptan-2-yl)methanone] | 1.2
15 | CC(C)Oc1nc(CC2CC3(C2)CN(C(=O)[C@H]2C[C@@](C)(O)C2)C3)ccc1C(F)(F)F [Example 282, ((1s,3s)-3-Hydroxy-3-methylcyclobutyl)(6-((6-isopropoxy-5-(trifluoromethyl)pyridin-2-yl)methyl)-2-azaspiro[3.3]heptan-2-yl)methanone] | 1
16 | C[C@]1(O)C[C@@H](C(=O)N2CC3(CC(Cc4ccc5ccnn5c4)C3)C2)C1 [Example 284, ((1s,3s)-3-Hydroxy-3-methylcyclobutyl)(6-(pyrazolo[1,5-c]pyridin-6-ylmethyl)-2-azaspiro[3.3]heptan-2-yl)methanone] | 122
17 | Cc1cc2cccnc2n1CC1CC2(C1)CN(C(=O)[C@H]1C[C@@](C)(O)C1)C2 [Example 287, ((1s,3s)-3-Hydroxy-3-methylcyclobutyl)(6-((2-methyl-1H-pyrrolo[2,3-b]pyridin-1-yl)methyl)-2-azaspiro[3.3]heptan-2-yl)methanone] | 67
18 | CC(C)n1ccc2ccc(CC3CC4(C3)CN(C(=O)C3CC(C)(O)C3)C4)nc21 (centres unmarked) [Example 289, ((1s,3s)-3-Hydroxy-3-methylcyclobutyl)(6-((1-isopropyl-1H-pyrrolo[2,3-b]pyridin-6-yl)methyl)-2-azaspiro[3.3]heptan-2-yl)methanone] | 8.2
19 | CC(C)c1ccc2ccn(CC3CC4(C3)CN(C(=O)[C@H]3C[C@@](C)(O)C3)C4)c2n1 [Example 290, ((1s,3s)-3-Hydroxy-3-methylcyclobutyl)(6-((6-isopropyl-1H-pyrrolo[2,3-b]pyridin-1-yl)methyl)-2-azaspiro[3.3]heptan-2-yl)methanone] | 16

More lines, now with the values ahead:

Row | IC50 [nM] | SMILES
20 | 7.2 | C[C@]1(O)C[C@@H](C(=O)N2CC3(CCC(Oc4ccc(C5CC5)cc4)CC3)C2)C1 [Example 261, (7-(4-Cyclopropylphenoxy)-2-azaspiro[3.5]nonan-2-yl)((1s,3s)-3-hydroxy-3-methylcyclobutyl)methanone]
21 | 32 | C[C@]1(O)C[C@@H](C(=O)N2CC3(CCC(Oc4cccc(C5CC5)c4)CC3)C2)C1 [Example 264, (7-(3-Cyclopropylphenoxy)-2-azaspiro[3.5]nonan-2-yl)((1s,3s)-3-hydroxy-3-methylcyclobutyl)methanone]
22 | 65 | Cc1cc(C2CC3(C2)CN(C(=O)[C@H]2C[C@@](C)(O)C2)C3)cc(C(F)(F)F)c1 [Example 267, ((1s,3s)-3-Hydroxy-3-methylcyclobutyl)(6-(3-methyl-5-(trifluoromethyl)phenyl)-2-azaspiro[3.3]heptan-2-yl)methanone]
23 | 3290 | COC1(Cc2ccccc2)CC2(CN(C(=O)[C@H]3C[C@@](C)(O)C3)C2)C1 [Example 270, (6-Benzyl-6-methoxy-2-azaspiro[3.3]heptan-2-yl)((1s,3s)-3-hydroxy-3-methylcyclobutyl)methanone]
24 | 8.1 | C[C@]1(O)C[C@@H](C(=O)N2CC3(CC(Cc4ccc(OC5CC5)cc4)C3)C2)C1 [Example 272, (6-(4-Cyclopropoxybenzyl)-2-azaspiro[3.3]heptan-2-yl)((1s,3s)-3-hydroxy-3-methylcyclobutyl)methanone]
25 | 9.9 | Cc1cc(F)ccc1CC1CC2(C1)CN(C(=O)[C@H]1C[C@@](C)(O)C1)C2 [Example 273, (6-(4-Fluoro-2-methylbenzyl)-2-azaspiro[3.3]heptan-2-yl)((1s,3s)-3-hydroxy-3-methylcyclobutyl)methanone]
26 | 6.2 | COc1ccc(CC2CC3(C2)CN(C(=O)[C@H]2C[C@@](C)(O)C2)C3)c(C(F)F)c1 [Example 274, (6-(2-(Difluoromethyl)-4-methoxybenzyl)-2-azaspiro[3.3]heptan-2-yl)((1s,3s)-3-hydroxy-3-methylcyclobutyl)methanone]
27 | 10 | Cc1ccc(CC2CC3(C2)CN(C(=O)[C@H]2C[C@@](C)(O)C2)C3)nc1OC(C)C [Example 279, ((1s,3s)-3-Hydroxy-3-methylcyclobutyl)(6-((6-isopropoxy-5-methylpyridin-2-yl)methyl)-2-azaspiro[3.3]heptan-2-yl)methanone]
28 | 116 | Cn1nc(CC2CC3(C2)CN(C(=O)[C@H]2C[C@@](C)(O)C2)C3)cc1C(F)(F)F [Example 283, ((1s,3s)-3-Hydroxy-3-methylcyclobutyl)(6-((1-methyl-5-(trifluoromethyl)-1H-pyrazol-3-yl)methyl)-2-azaspiro[3.3]heptan-2-yl)methanone]
29 | 47 | C[C@]1(O)C[C@@H](C(=O)N2CC3(CC(Cc4cccc5ccnn45)C3)C2)C1 [Example 285, ((1s,3s)-3-Hydroxy-3-methylcyclobutyl)(6-(pyrazolo[1,5-c]pyridin-7-ylmethyl)-2-azaspiro[3.3]heptan-2-yl)methanone]
30 | 90 | C[C@]1(O)C[C@@H](C(=O)N2CC3(CC(Cn4ccc5cccnc54)C3)C2)C1 [Example 286, (6-((1H-Pyrrolo[2,3-b]pyridin-1-yl)methyl)-2-azaspiro[3.3]heptan-2-yl)((1s,3s)-3-hydroxy-3-methylcyclobutyl)methanone]
31 | 26 | Cc1ccc2ccn(CC3CC4(C3)CN(C(=O)[C@H]3C[C@@](C)(O)C3)C4)c2n1 [Example 288, ((1s,3s)-3-Hydroxy-3-methylcyclobutyl)(6-((6-methyl-1H-pyrrolo[2,3-b]pyridin-1-yl)methyl)-2-azaspiro[3.3]heptan-2-yl)methanone]
32 | 3.8 | Cc1cn(C)c2nc(CC3CC4(C3)CN(C(=O)[C@H]3C[C@@](C)(O)C3)C4)ccc12 [Example 291, (6-((1,3-Dimethyl-1H-pyrrolo[2,3-b]pyridin-6-yl)methyl)-2-azaspiro[3.3]heptan-2-yl)((1s,3s)-3-hydroxy-3-methylcyclobutyl)methanone]
